According to patent US9562042B2, “α-oxoacyl amino-caprolactam” (Seikagaku Corporation, priority 2013, dated 2017):
pIC50: −log10 of the molar value.

Experiments:
CYP3A4 = CYP3A4 (Homo sapiens, UniProt P08684); experiment: Measurement of CYP3A4 inhibitory activity (midazolam 1'-hydroxylation in human hepatic microsomes, DI and MBI); type: in vitro ADME; conditions: human hepatic (liver) microsomes, probe midazolam (1'-hydroxylation), inventive compounds (Table 4); for IC50 at 10 min: direct inhibition, midazolam, 37° C. 10 minutes, read-out: CYP3A inhibitory IC50 (μmol/L) DI; for pIC50: mechanism based inhibition, pre-incubated 37° C. 30 minutes before midazolam, read-out: CYP3A inhibitory IC50 (μmol/L) MBI
Experimental: The measurement of CYP3A4 inhibitory activity was performed with reference to the method of Newton et al. (Drug Metab. Dispos. 23, 154-158 (1995)) and the method described in JP 2007-236327 A.
A reaction mixture was prepared by mixing the compound of the present invention with midazolam as a typical substrate for CYP3A4 (see Food and Drug Administration (FDA) Guidance for Industry Drug Interaction Studies—Study Design, Data Analysis, Implications for Dosing, and Labeling Recommendations. FDA web site [online], www.fda.gov/downloads/drugs/guidancecomplianceregulatoryinformation/guidances/ucm292362.pdf), coenzyme NADPH-generating system, human hepatic microsomes, and a phosphate buffer. The reaction mixture was incubated at 37° C. for 10 minutes.
The coenzyme NADPH-generating system solution was prepared by mixing the materials shown in Table 1: the 13 mmol/L β-NADP^+ solution, the 33 mmol/L G-6-P solution, the solution of 10 U/mL G6PDH (Y) (manufactured by Oriental Yeast Co., Ltd.), and the 33 mmol/L MgCl2 solution in a ratio of 1:1:0.4:1 (v:v:v:v). […] The final concentrations of the compounds of the present invention and the comparative compounds were set at the levels considered to be necessary for the calculation of the IC50 values based on the results of the measurement performed at an arbitrary concentration in advance.
After the incubation, the reaction was quenched by the addition of an acetonitrile solution to the reaction mixture. The amount of 1′-hydroxymidazolam produced (the metabolite produced from midazolam by CYP3A4) was measured in the quenched sample with a high-performance liquid chromatography tandem mass spectrometer (LC-MS/MS). Each IC50 value for DI (direct inhibition) was determined from the amount of the produced 1′-hydroxymidazolam and the final concentration of the compound of the present invention or the comparative compound in the reaction mixture.
MBI (mechanism based inhibition) was evaluated as follows. After the reaction mixture not containing midazolam (but containing the compound of the present invention or the comparative compound, the coenzyme NADPH-generating system, the human hepatic microsomes, and the phosphate buffer) was pre-incubated at 37° C. for 30 minutes, midazolam was added to the reaction mixture. The reaction mixture was then incubated at 37° C. for 10 minutes. Subsequently, the reaction was quenched by the addition of an acetonitrile solution to the reaction mixture. The amount of 1′-hydroxymidazolam produced was measured in the quenched sample with an LC-MS/MS. As in the case of DI, each IC50 value for MBI was determined from the amount of the produced 1′-hydroxymidazolam and the final concentration of the compound of the present invention or the comparative compound in the reaction mixture.

cathepsin K = experiment: Measurement of cathepsin K inhibitory activity (decomposition of fluorescent substrate Z-Gly-Pro-Arg-MCA); type: biochemical
Experimental: Cathepsin K was prepared as follows. […] Specifically, the decomposition of 20 μM Z-Gly-Pro-Arg-MCA by cathepsin K was measured in 100 mM potassium sodium phosphate, 1 mM EDTA, 8 mM Cysteine, pH 6.0. The reaction was performed at 37° C. for 30 minutes and then quenched by the addition of 2×10^−5 M of calpeptin.

Chain of CYP3A4 (P08684 2-503): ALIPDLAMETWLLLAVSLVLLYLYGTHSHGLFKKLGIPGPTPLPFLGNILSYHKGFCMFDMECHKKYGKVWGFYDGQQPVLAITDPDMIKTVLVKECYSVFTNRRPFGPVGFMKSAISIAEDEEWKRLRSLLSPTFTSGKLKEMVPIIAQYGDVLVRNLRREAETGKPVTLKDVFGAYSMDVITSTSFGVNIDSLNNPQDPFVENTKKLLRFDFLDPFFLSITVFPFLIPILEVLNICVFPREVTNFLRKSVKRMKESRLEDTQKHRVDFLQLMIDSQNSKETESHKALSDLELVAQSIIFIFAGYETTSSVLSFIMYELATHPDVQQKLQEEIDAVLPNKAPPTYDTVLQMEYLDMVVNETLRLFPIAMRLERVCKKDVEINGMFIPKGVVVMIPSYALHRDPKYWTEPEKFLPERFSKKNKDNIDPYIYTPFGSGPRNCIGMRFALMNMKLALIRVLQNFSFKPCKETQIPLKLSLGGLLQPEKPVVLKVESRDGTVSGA

CC(C)[C@H](NC(=O)C1(NC(=O)N2CCSC2)CCCCC1)C(=O)C(=O)N[C@H]1CCCCNC1=O [Compound 1]
IC50 at 10 min (CYP3A4): 43.5 µmol/L
pIC50 (CYP3A4): 4.35
CYP/CatK (cathepsin K): 56555

CC(C)[C@H](NC(=O)C1(NC(=O)N2CCCC2)CCCCC1)C(=O)C(=O)N[C@H]1CCCCNC1=O [Compound 2]
IC50 at 10 min (CYP3A4): 101 µmol/L
pIC50 (CYP3A4): 4.14
CYP/CatK (cathepsin K): 52214

CC(C)[C@H](NC(=O)C1(NC(=O)[C@H]2CCCO2)CCCCC1)C(=O)C(=O)N[C@H]1CCCCNC1=O [Compound 3]
IC50 at 10 min (CYP3A4): 208 µmol/L
pIC50 (CYP3A4): 3.86
CYP/CatK (cathepsin K): 40294
